Assay results: paper PMC7026418, “The kinase polypharmacology landscape of clinical PARP inhibitors” (Scientific Reports, 2020)
Read-outs that look alike come from different tables or passages of the source. One block for each compound: values may come before it.

Key:
Experiment in all cases: biochemical
Design in all cases: DiscoveRx KINOMEscan active site-directed competition binding; percent of control kinase bound to immobilised ligand
[1] = molecular target: T1, ARK5 (Homo sapiens, UniProt O60285)
T1 construct: gene NUAK1
T1 sequence (O60285 1-661): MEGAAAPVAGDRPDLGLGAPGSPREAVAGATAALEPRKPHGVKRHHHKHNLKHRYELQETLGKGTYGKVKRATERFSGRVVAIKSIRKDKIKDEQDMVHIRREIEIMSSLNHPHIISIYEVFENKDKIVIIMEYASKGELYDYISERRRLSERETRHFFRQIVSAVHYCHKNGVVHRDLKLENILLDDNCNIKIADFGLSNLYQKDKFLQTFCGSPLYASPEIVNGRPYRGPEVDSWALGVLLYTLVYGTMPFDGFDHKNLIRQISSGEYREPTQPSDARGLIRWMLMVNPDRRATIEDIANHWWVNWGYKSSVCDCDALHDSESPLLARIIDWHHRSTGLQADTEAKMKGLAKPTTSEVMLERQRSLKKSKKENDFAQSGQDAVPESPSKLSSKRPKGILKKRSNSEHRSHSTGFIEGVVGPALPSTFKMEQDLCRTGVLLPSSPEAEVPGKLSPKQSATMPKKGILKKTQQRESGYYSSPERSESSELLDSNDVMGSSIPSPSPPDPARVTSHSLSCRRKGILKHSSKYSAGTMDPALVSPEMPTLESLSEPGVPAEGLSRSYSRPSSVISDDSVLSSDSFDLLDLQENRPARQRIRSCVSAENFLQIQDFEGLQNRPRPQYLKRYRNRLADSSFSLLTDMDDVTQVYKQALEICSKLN

[2] = molecular target: DDR1 (Homo sapiens, UniProt Q08345)
[3] = molecular target: ERBB2 (Homo sapiens, UniProt P04626)
[4] = molecular target: FYN (Homo sapiens, UniProt P06241)
[5] = molecular target: T2, MAK (Homo sapiens, UniProt P20794)
T2 sequence (P20794 1-623): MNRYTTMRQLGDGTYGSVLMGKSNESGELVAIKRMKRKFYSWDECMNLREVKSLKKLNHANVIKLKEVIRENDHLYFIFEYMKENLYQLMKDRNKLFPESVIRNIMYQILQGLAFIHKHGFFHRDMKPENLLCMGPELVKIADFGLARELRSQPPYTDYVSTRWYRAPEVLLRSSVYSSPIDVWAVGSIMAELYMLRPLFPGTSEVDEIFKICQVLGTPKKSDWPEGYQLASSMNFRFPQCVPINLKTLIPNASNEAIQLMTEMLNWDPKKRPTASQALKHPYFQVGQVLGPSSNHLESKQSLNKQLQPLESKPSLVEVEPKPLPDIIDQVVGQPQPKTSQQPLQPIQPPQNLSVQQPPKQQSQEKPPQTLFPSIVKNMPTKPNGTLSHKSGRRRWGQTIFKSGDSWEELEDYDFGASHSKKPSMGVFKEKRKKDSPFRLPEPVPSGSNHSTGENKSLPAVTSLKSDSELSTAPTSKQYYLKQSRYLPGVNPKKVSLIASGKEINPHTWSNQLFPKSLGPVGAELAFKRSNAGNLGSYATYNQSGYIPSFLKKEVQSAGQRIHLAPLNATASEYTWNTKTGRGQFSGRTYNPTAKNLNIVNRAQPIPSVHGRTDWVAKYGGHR

[6] = molecular target: T3, MAP3K2 (Homo sapiens, UniProt Q9Y2U5)
T3 sequence (Q9Y2U5 1-619): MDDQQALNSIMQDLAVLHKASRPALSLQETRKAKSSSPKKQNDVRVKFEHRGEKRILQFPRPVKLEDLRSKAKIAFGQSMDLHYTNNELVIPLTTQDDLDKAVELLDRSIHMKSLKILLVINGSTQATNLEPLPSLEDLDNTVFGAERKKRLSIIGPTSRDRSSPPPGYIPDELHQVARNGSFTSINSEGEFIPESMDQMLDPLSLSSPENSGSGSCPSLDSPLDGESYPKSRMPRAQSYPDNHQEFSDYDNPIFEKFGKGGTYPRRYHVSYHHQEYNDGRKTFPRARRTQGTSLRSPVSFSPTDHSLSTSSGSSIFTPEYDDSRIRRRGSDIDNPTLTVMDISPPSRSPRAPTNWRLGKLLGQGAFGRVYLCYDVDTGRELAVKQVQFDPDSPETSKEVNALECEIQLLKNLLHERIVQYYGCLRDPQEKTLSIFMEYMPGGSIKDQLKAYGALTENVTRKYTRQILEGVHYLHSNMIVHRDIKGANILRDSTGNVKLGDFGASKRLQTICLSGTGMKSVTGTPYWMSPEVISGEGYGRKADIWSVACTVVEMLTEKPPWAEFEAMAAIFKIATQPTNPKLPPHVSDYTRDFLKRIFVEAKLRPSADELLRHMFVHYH

[7] = molecular target: MARK2 (Homo sapiens, UniProt Q7KZI7)
[8] = molecular target: T4, MEK2 (Homo sapiens, UniProt P36507)
T4 construct: gene MAP2K2

[9] = molecular target: T5, PFTK1 (Homo sapiens, UniProt O94921)
T5 construct: gene CDK14

[10] = read-out: Niraparib (MK-4827) / %Ctrl @ 10000nM
[11] = read-out: Olaparib / %Ctrl @ 10000nM
[12] = read-out: Rucaparib / %Ctrl @ 10000nM, binding competition, % of control
[13] = read-out: Talazoparib (BMN 673) / %Ctrl @ 10000nM

DDR1, sequence (Q08345 whole entry): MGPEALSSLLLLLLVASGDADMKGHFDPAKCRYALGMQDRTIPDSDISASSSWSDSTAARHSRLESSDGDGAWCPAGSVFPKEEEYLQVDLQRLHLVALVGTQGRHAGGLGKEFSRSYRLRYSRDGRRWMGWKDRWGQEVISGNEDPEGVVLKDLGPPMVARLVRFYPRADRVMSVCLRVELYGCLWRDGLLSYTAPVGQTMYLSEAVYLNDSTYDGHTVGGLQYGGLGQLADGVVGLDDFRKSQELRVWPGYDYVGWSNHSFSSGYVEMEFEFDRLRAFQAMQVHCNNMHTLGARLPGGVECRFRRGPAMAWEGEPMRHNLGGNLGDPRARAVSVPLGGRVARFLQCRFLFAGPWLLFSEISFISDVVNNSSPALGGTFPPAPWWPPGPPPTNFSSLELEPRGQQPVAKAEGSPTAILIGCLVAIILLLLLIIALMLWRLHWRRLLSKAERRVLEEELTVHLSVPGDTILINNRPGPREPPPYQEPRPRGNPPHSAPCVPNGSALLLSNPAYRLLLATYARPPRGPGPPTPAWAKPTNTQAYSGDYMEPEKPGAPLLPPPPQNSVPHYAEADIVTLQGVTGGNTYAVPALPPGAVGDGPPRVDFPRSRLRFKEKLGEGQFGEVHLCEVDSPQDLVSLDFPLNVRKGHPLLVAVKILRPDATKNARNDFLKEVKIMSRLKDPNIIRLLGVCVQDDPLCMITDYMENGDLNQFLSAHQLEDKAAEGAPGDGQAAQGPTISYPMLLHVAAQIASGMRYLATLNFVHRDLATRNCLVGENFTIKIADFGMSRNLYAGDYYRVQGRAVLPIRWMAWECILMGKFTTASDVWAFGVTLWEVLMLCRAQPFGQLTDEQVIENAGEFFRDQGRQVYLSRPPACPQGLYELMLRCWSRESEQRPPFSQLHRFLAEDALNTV
FYN, sequence (P06241 whole entry): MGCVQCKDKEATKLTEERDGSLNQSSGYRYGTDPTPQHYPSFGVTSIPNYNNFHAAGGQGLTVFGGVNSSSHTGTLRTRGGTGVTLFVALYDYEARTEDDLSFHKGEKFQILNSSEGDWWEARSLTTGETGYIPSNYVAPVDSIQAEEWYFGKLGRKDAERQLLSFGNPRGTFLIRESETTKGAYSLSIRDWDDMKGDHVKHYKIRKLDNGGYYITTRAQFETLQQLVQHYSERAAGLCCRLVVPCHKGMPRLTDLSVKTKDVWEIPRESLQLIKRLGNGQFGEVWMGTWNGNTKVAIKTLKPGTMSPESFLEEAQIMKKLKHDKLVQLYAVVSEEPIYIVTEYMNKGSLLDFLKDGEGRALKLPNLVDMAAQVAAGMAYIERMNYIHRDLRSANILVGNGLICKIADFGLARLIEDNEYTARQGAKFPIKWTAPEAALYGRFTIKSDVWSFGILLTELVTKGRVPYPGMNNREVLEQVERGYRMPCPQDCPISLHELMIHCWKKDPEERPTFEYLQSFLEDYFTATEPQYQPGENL
T5 sequence (O94921 whole entry): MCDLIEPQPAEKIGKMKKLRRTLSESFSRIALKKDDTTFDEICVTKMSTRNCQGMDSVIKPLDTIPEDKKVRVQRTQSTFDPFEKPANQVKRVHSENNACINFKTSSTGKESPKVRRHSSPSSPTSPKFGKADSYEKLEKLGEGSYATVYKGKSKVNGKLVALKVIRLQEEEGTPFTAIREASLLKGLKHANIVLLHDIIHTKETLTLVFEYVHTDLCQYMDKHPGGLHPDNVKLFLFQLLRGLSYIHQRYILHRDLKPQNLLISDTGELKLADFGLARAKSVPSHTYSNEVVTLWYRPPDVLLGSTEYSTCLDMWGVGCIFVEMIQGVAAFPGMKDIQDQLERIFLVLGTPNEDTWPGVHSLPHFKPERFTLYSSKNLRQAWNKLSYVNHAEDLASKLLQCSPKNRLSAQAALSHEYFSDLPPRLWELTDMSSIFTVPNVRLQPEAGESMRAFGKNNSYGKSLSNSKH
ERBB2, sequence (P04626 whole entry): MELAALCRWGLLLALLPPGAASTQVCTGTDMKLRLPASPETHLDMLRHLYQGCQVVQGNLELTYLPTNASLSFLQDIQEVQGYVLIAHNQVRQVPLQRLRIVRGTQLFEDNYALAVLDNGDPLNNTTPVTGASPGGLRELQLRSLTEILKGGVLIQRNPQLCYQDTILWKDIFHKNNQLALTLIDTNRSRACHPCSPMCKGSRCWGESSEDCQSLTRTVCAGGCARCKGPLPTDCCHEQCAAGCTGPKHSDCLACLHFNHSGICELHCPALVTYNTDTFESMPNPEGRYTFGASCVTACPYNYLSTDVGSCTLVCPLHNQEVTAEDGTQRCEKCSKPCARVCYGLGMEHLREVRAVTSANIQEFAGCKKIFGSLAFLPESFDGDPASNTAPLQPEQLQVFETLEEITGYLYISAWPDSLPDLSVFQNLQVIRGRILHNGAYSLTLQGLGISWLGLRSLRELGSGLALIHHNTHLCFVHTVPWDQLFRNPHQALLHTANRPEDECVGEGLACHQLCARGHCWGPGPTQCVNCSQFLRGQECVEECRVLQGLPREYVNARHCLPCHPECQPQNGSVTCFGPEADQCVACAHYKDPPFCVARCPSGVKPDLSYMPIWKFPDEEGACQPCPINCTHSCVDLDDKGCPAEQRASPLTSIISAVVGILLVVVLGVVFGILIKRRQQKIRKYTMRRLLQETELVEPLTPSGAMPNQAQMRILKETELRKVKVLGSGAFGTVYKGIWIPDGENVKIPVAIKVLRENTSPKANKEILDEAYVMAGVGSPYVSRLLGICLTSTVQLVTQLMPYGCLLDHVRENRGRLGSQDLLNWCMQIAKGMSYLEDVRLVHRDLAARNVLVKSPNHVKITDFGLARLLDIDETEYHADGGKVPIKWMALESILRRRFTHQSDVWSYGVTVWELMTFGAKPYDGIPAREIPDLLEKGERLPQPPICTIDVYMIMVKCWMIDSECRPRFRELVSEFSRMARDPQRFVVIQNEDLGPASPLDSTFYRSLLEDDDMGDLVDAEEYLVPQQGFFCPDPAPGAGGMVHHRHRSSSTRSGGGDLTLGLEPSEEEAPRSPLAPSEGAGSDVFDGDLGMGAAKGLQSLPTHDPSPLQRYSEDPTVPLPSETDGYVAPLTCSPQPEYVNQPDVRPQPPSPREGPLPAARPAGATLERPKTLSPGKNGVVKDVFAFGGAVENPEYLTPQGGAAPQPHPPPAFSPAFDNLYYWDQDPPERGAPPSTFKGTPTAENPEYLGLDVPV
MARK2, sequence (Q7KZI7 whole entry): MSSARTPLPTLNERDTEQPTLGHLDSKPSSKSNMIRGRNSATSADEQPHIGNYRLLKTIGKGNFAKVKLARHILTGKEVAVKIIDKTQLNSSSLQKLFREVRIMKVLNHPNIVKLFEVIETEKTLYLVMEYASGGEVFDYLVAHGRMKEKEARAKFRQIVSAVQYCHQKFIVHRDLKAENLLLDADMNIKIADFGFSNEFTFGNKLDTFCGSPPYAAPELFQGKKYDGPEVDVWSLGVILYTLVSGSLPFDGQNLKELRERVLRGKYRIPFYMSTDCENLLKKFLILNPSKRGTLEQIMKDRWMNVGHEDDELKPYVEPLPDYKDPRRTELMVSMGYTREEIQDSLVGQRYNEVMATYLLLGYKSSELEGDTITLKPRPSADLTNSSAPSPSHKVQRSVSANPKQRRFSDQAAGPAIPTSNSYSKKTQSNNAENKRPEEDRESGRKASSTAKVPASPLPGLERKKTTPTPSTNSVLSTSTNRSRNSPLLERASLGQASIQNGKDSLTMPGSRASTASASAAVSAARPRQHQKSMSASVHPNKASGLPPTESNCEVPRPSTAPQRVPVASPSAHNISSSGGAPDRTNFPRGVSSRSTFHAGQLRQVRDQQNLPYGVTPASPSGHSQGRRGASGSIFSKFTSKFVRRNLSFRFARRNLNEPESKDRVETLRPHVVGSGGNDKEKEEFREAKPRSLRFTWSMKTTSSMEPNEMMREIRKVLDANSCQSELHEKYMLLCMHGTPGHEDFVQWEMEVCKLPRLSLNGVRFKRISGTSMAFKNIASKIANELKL
T4 sequence (P36507 whole entry): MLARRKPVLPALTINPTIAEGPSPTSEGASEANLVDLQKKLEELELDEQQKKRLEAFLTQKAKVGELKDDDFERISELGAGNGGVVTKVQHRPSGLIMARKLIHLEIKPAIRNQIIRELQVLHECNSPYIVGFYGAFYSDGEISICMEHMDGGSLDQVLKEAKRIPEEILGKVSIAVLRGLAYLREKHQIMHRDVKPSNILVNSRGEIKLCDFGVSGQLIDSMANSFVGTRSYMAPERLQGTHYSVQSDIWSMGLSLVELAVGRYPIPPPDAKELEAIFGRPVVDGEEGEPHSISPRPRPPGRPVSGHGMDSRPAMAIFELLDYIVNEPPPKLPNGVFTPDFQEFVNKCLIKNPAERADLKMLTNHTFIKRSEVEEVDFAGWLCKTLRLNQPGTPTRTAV

Compound: NC(=O)c1cccc2cn(-c3ccc([C@@H]4CCCNC4)cc3)nc12 [Niraparib]
- percent of control binding at 10 µM [1, 10]: 56%
- percent of control binding at 10 µM [2, 10]: 85%
- percent of control binding at 10 µM [3, 10]: 82%
- percent of control binding at 10 µM [4, 10]: 88%
- percent of control binding at 10 µM [5, 10]: 56%
- percent of control binding at 10 µM [6, 10]: 97%
- percent of control binding at 10 µM [7, 10]: 75%
- percent of control binding at 10 µM [8, 10]: 74%
- percent of control binding at 10 µM [9, 10]: 88%

- percent of control binding at 10 µM [1, 11]: 99%
- percent of control binding at 10 µM [2, 11]: 77%
- percent of control binding at 10 µM [3, 11]: 100%
- percent of control binding at 10 µM [4, 11]: 72%
- percent of control binding at 10 µM [5, 11]: 77%
- percent of control binding at 10 µM [6, 11]: 92%
- percent of control binding at 10 µM [7, 11]: 100%
- percent of control binding at 10 µM [8, 11]: 87%
- percent of control binding at 10 µM [9, 11]: 100%
Compound: O=C(c1cc(Cc2n[nH]c(=O)c3ccccc23)ccc1F)N1CCN(C(=O)C2CC2)CC1 [Olaparib]

- percent of control binding at 10 µM [1, 12]: 100%
- percent of control binding at 10 µM [2, 12]: 96%
- percent of control binding at 10 µM [3, 12]: 100%
- percent of control binding at 10 µM [4, 12]: 100%
- percent of control binding at 10 µM [5, 12]: 81%
- percent of control binding at 10 µM [6, 12]: 82%
- percent of control binding at 10 µM [7, 12]: 92%
- percent of control binding at 10 µM [8, 12]: 79%
- percent of control binding at 10 µM [9, 12]: 86%
Compound: CNCc1ccc(-c2[nH]c3cc(F)cc4c3c2CCNC4=O)cc1 [Rucaparib]

- percent of control binding at 10 µM [1, 13]: 100%
- percent of control binding at 10 µM [2, 13]: 84%
- percent of control binding at 10 µM [3, 13]: 98%
- percent of control binding at 10 µM [4, 13]: 100%
- percent of control binding at 10 µM [5, 13]: 93%
- percent of control binding at 10 µM [6, 13]: 98%
- percent of control binding at 10 µM [7, 13]: 100%
- percent of control binding at 10 µM [8, 13]: 57%
- percent of control binding at 10 µM [9, 13]: 89%
Compound: Cn1ncnc1[C@H]1c2n[nH]c(=O)c3cc(F)cc(c23)N[C@@H]1c1ccc(F)cc1 [Talazoparib]
